In patent US8686022B2, “7-(piperazine-1-ymethyl)-1H-indole-2-carboxylic acid (phenyl)-amide derivatives and allied compounds as p38 MAP kinase inhibitors for the treatment of respiratory diseases” (Boehringer Ingelheim International GmbH, priority 2008, dated 2014) one finds inhibition, solubility and IC50 data, which are given here for 19 compounds.

pIC50: −log10 of the molar value. Converted amounts (≈) assume the structure as drawn.

The target of one data set is p38 MAP-kinase (Homo sapiens, UniProt Q16539). The data set can be described thus: p38 MAP-kinase enzymatic assay (phosphorylation of GST-tagged ATF2, chemoluminescence). The format is biochemical. To be noted: inhibitor concentration 1 μM; activated p38 MAP-kinase 1 nM; ATP 100 μM; read-out: p38 (% Inh @ 1 μM). In outline:
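Activated p38 MAP-kinase (1 nM) preincubated 4 h at ambient temperature with 1 μM compound in HEPES pH 7, MgCl2, DTT, TWEEN20, then reacted 1 h with 10 nM GST-ATF2 and 100 μM ATP. Phospho-ATF2 detected by AlphaScreen-type bead luminescence; percent inhibition at 1 μM versus uninhibited and kinase-free controls.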

Data set [1] is described as follows: Determining the solubility (saturated solution in McIlvaine buffer pH 7.4, UV spectroscopy). The format is physicochemical. The note with it: pH 7.4, aqueous buffer, thermodynamic from solid, shaken 2 hours, 0.75 mg solid in 0.75 ml. Put shortly: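 Excess solid (0.75 mg per 0.75 ml) shaken 2 h in McIlvaine buffer pH 7.4, then filtered through 0.45 μm PTFE membrane with first drops discarded. Dissolved amount measured by UV spectroscopy.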

The target in the next data set is cytochrome P450 2C9 (Homo sapiens, UniProt P11712). The data set can be described thus: Determining the cyp2C9 activity (O-demethylation of [O-methyl-14C]-naproxen). The format is in vitro ADME. To be noted: human recombinant cytochrome P450 2C9; 37° C.; <0.4 μM when inhibition >50% at lowest concentration; read-out: CYP 2C9 IC50. Put shortly:
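Recombinant CYP2C9 (40 pmol/ml) with 80 μM [O-methyl-14C]-naproxen in 0.1 M Tris, 5 mM MgCl2; test compound at 50, 10, 2 and 0.4 μM in duplicate. Started with 1 mM NADPH, stopped after 15 min with TCA; 14C-formaldehyde separated by solid-phase extraction and counted by scintillation. IC50 from least-squares fit.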

p38 MAP-kinase, sequence (Q16539 whole entry): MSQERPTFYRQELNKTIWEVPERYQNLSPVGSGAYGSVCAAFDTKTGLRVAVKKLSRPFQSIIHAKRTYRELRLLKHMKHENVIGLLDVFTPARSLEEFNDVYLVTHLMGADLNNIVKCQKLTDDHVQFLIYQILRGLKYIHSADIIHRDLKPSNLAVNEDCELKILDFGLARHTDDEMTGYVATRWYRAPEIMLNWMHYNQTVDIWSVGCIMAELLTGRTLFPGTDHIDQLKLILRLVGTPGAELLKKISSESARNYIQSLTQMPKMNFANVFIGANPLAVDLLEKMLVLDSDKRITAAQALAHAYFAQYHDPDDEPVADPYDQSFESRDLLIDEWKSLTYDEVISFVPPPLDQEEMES
cytochrome P450 2C9, sequence (P11712 whole entry): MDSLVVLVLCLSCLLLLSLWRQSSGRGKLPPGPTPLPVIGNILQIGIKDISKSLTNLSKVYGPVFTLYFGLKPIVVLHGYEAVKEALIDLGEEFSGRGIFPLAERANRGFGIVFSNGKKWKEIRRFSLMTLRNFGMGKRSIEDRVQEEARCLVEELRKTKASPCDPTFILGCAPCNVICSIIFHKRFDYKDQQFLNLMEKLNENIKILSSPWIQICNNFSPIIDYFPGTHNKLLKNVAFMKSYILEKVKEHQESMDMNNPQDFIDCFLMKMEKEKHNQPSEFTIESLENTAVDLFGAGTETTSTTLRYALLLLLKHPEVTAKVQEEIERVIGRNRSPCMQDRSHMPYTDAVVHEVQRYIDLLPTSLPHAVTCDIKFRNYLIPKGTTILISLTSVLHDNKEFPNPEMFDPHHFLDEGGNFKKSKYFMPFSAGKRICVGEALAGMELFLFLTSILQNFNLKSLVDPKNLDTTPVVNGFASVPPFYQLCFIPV

Turning to `COc1c(NC(=O)c2cc3cccc(CN4CCN(C(=O)[C@@H]5CCCN5C)CC4)c3n2C)cc(C(F)(F)F)cc1NS(C)(=O)=O` [14(1), (S)-1-methyl-7-[4-(1-methyl-pyrrolidine-2-carbonyl)-piperazin-1-ylmethyl]-1H-indole-2-carboxylic acid-(3-methanesulphonylamino-2-methoxy-5-trifluoromethyl-phenyl)-amide], the inhibition at 1 µM on p38 MAP-kinase turned out to be 97.9%. Moreover, the concentration in solution in data set [1] (solubility at 2 h) was 97 µg/mL (≈ 149 µM). For the same compound, on cytochrome P450 2C9, the pIC50 was 5.28.
As to `COc1c(NC(=O)c2cc3cccc(CN4CCN(C(=O)C5CCN(C)CC5)CC4)c3n2C)cc(C(C)(C)C)cc1NS(C)(=O)=O` [Example 1, 1-methyl-7-[4-(1-methyl-piperidine-4-carbonyl)-piperazin-1-ylmethyl]-1H-indole-2-carboxylic acid(5-tert-butyl-3-methanesulphonylamino-2-methoxy-phenyl)-amide], the inhibition at 1 µM at p38 MAP-kinase was 98.9%. This compound also gave a solubility at 2 h in data set [1] of 360 µg/mL (≈ 551 µM). For the same compound, on cytochrome P450 2C9, the pIC50 was 5.62.
For `COc1c(NC(=O)c2cc3cccc(CN4CCN(C(=O)N5CC[C@@H](N(C)C)C5)CC4)c3n2C)cc(C(C)(C)C)cc1NS(C)(=O)=O` [Example 2, (R)-7-[4-(3-dimethylamino-pyrrolidine-1-carbonyl)-piperazin-1-ylmethyl]-1-methyl-1H-indole-2-carboxylic acid(5-tert-butyl-3-methanesulohonylamino-2-methoxy-phenyl)-amide], in that order: 99.1%, 10 µg/mL (≈ 15 µM) and 5.89.
The matching figures for `COc1c(NC(=O)c2cc3cccc(CN4CCN(C(=O)C5CNC5)CC4)c3n2C)cc(C(C)(C)C)cc1NS(C)(=O)=O` [Example 3, 7-[4-(azetidine-3-carbonyl)-piperazin-1-ylmethyl]-1-methyl-1H-indole-2-carboxylic acid (5-tert-butyl-3-methanesulphonylamino-2-methoxy-phenyl)-amide]: 99%, 85 µg/mL (≈ 139 µM) and 5.90.
The matching figures for `COc1c(NC(=O)c2cc3cccc(CN4CCN(C(=O)C5CCCN(C)C5)CC4)c3n2C)cc(C(C)(C)C)cc1NS(C)(=O)=O` (stereo not drawn) [Example 4, 1-methyl-7-[4-(1-methyl-piperidine-3-carbonyl)-piperazin-1-ylmethyl]-1H-indole-2-carboxylic acid (5-tert-butyl-3-methanesulphonylamino-2-methoxy-phenyl)-amide]: 99.4%, 78 µg/mL (≈ 119 µM) and 6.36.
In the case of `COc1c(NC(=O)c2cc3cccc(CN4CCN(C(=O)[C@H]5CCN(C)C5)CC4)c3n2C)cc(C(C)(C)C)cc1NS(C)(=O)=O` [Example 5, (S)-1-methyl-7-[4-(1-methyl-pyrrolidine-3-carbonyl)-piperazin-1-ylmethyl]-1H-indole-2-carboxylic acid (5-tert-butyl-3-methanesulphonylamino-2-methoxy-phenyl)-amide], the inhibition at 1 µM at p38 MAP-kinase stood at 98.6%. Also, the concentration in solution in data set [1] (solubility at 2 h) was 620 µg/mL (≈ 971 µM). Also, the pIC50 on cytochrome P450 2C9 was 5.94.
Take `COc1c(NC(=O)c2cc3cccc(CN4CCN(C(=O)CN5CCC(N(C)C)CC5)CC4)c3n2C)cc(C(C)(C)C)cc1NS(C)(=O)=O` [Example 6, 7-{4-[2-(4-dimethylamino-piperidin-1-yl)-acetyl]-piperazin-1-ylmethyl}-1-methyl-1H-indole-2-carboxylic acid-(5-tert-butyl-3-methanesulphonylamino-2-methoxy-phenyl)-amide]: the inhibition at 1 µM on p38 MAP-kinase was found to be 98.6%. This compound also yielded a solubility at 2 h in data set [1] of over 1000 µg/mL. The pIC50 at cytochrome P450 2C9 was 5.46.
With `COc1c(NC(=O)c2cc3cccc(CN4CCN(C(=O)CN5CCNCC5)CC4)c3n2C)cc(C(C)(C)C)cc1NS(C)(=O)=O` [Example 7, 1-methyl-7-[4-(2-piperazin-1-yl-acetyl)-piperazin-1-ylmethyl]-1H-indole-2-carboxylic acid-(5-tert-butyl-3-methanesulphonylamino-2-methoxy-phenyl)-amide], the inhibition at 1 µM at p38 MAP-kinase stood at 98.7%. In data set [1], the solubility at 2 h turned out to be 110 µg/mL (≈ 168 µM). The pIC50 at cytochrome P450 2C9 was 5.27.
For `COc1c(NC(=O)c2cc3cccc(CN4CCCN(C(=O)[C@@H]5CCCN5C)CC4)c3n2C)cc(C(C)(C)C)cc1NS(C)(=O)=O` [Example 8, 1-methyl-7-[4-((2S)-1-methyl-pyrrolidine-2-carbonyl)-[1,4]diazepan-1-ylmethyl]-1H-indole-2-carboxylic acid-(5-tert-butyl-3-methanesulphonylamino-2-methoxy-phenyl)-amide], in that order: 97.3%, 280 µg/mL (≈ 429 µM) and 5.78.
Regarding `COc1c(CN2CCN(C)CC2)cc(C(C)(C)C)cc1NC(=O)c1cc2cccc(CN3CCN(C(=O)[C@@H]4CCCN4C)CC3)c2n1C` [Example 9, (S)-1-methyl-7-[4-(1-methyl-pyrrolidine-2-carbonyl)-piperazin-1-ylmethyl]-1H-indole-2-carboxylic acid-[5-tert-butyl-2-methoxy-3-(4-methyl-piperazin-1-ylmethyl)-phenyl]-amide], the inhibition at 1 µM at p38 MAP-kinase came out at 98.8%. In data set [1], the solubility at 2 h was over 1000 µg/mL. Besides, the pIC50 on cytochrome P450 2C9 is 4.96.
The matching figures for `COc1c(NC(=O)c2cc3cccc(CN4CCN(C(=O)[C@@H]5CCCN5C)CC4)c3n2C)cc(C(C)(C)C)cc1C(=O)NC1CC1` [Example 10, (S)-1-methyl-7-[4-(1-methyl-pyrrolidine-2-carbonyl)-piperazin-1-ylmethyl]-1H-indole-2-carboxylic acid-(5-tert-butyl-3-cyclopropylcarbamoyl-2-methoxy-phenyl)-amide]: 99.1%, 420 µg/mL (≈ 668 µM) and 5.88.
With `COc1c(NC(=O)c2cc3cccc(CN4CCN(C(=O)[C@@H]5CCCN5C)CC4)c3n2C)cc(C(C)(C)C)cc1C(=O)N(C)C` [Example 11, (S)-1-methyl-7-[4-(1-methyl-pyrrolidine-2-carbonyl)-piperazin-1-ylmethyl]-1H-indole-2-carboxylic acid-(5-tert-butyl-3-dimethylcarbamoyl-2-methoxy-phenyl)-amide], the inhibition at 1 µM at p38 MAP-kinase was determined as 92%. The solubility at 2 h in data set [1] was found to be 450 µg/mL (≈ 730 µM). For the same compound, on cytochrome P450 2C9, the pIC50 is 5.23.
For `CCC(=O)Nc1cc(C(C)(C)C)cc(NC(=O)c2cc3cccc(CN4CCN(C(=O)[C@@H]5CCCN5C)CC4)c3n2C)c1OC` [Example 12, (S)-1-methyl-7-[4-(1-methyl-pyrrolidine-2-carbonyl)-piperazin-1-ylmethyl]-1H-indole-2-carboxylic acid-(5-tert-butyl-2-methoxy-3-propionylamino-phenyl)-amide], in that order: 97.9%, 660 µg/mL (≈ 1070 µM) and 6.30.
On to `CCCS(=O)(=O)Nc1cc(C(C)(C)C)cc(NC(=O)c2cc3cccc(CN4CCN(C(=O)[C@@H]5CCCN5C)CC4)c3n2C)c1OC` [Example 13, (S)-1-methyl-7-[4-(1-methyl-pyrrolidine-2-carbonyl)-piperazin-1-ylmethyl]-1H-indole-2-carboxylic acid-[5-tert-butyl-2-methoxy-3-(propane-1-sulphonylamino)-phenyl]-amide], for which, at p38 MAP-kinase, the inhibition at 1 µM worked out at 99.1%. Further, the solubility at 2 h in data set [1] was 17 µg/mL (≈ 25.5 µM). At cytochrome P450 2C9, the pIC50 was 6.30.
The matching figures for `COc1c(NC(=O)c2cc3cccc(CN4CCN(C(=O)[C@@H]5CCCN5C)CC4)c3n2C)cc(C(F)(F)C(F)(F)F)cc1NS(C)(=O)=O` [Example 14, (S)-1-methyl-7-[4-(1-methyl-pyrrolidine-2-carbonyl)-piperazin-1-ylmethyl]-1H-indole-2-carboxylic acid-(3-methanesulphonylamino-2-methoxy-5-pentafluoroethyl-phenyl)-amide]: 98.8%, 27 µg/mL (≈ 38.5 µM) and 5.84.
Consider `COc1c(CO)cc(C(C)(C)C)cc1NC(=O)c1cc2cccc(CN3CCN(C(=O)[C@@H]4CCCN4C)CC3)c2n1C` [Example 15, (S)-1-methyl-7-[4-(1-methyl-pyrrolidine-2-carbonyl)-piperazin-1-ylmethyl]-1H-indole-2-carboxylic acid-(5-tert-butyl-3-hydroxymethyl-2-methoxy-phenyl)-amide], for which, at p38 MAP-kinase, the inhibition at 1 µM came to 99.4%. The compound also came in with a solubility at 2 h in data set [1] of 230 µg/mL (≈ 399 µM). Further, the pIC50 on cytochrome P450 2C9 is 5.60.
For `COc1c(NC(=O)c2cc3cccc(CN4CCN(C(=O)CC5CC5)CC4)c3n2C)cc(C(C)(C)C)cc1NS(C)(=O)=O` [Va, reference compound], in that order: 98.8%, under 1 µg/mL and over 6.40.
For `COc1c(NC(=O)c2cc3cccc(CN4CCN(C(=O)C5(C)CC5)CC4)c3n2C)cc(C(C)(C)C)cc1NS(C)(=O)=O` [Vb, reference compound], in that order: 99.1%, under 1 µg/mL and over 6.40.
For `COc1c(NC(=O)c2cc3cccc(CN4CCN(C(=O)C5CC5)CC4)c3n2C)cc(C(C)(C)C)cc1NS(C)(=O)=O` [Vc, reference compound], in that order: 99.1%, under 1 µg/mL and over 6.40.

Usually solubility stands for how much of the substance goes into solution per volume. Read a high solubility as much dissolved substance. As a reminder, the pIC50 is −log10 of the IC50, conventionally taken in molar units.
